Experimental data reported in ChEMBL document CHEMBL3758089, “Giffonins J-P, Highly Hydroxylated Cyclized Diarylheptanoids from the Leaves of Corylus avellana Cultivar "Tonda di Giffoni"” (J Nat Prod, 2015).

Columns and labels:
Format in all cases: functional, cell-based
U2OS [1] = experiment: Cytotoxicity against human U2OS cells expressing wild-type p53 after 24 hrs by crystal violet-staining based spectrophotometric assay
[2] = Cytotoxicity against human Saos2 cells […] after 24 hrs by crystal violet-staining based spectrophotometric assay; details: SAOS-2, 24 h
U2OS [3] = experiment: Cytotoxicity against human U2OS cells expressing wild-type p53 after 48 hrs by crystal violet-staining based spectrophotometric assay
[4] = Cytotoxicity against human Saos2 cells […] after 48 hrs by crystal violet-staining based spectrophotometric assay; details: SAOS-2, 48 h

| SMILES | EC50 (U2OS [1]) [µM] | EC50 [2] [µM] | EC50 (U2OS [3]) [µM] | EC50 [4] [µM] |
| --- | --- | --- | --- | --- |
| C[C@H]1OC(Oc2c(-c3ccc(O)cc3)oc3cc(O)cc(O)c3c2=O)[C@@H](O)[C@@H](O)[C@@H]1O (stereo partly drawn) | > 150 | > 150 | > 150 | > 150 |
| COc1c2cc(c(OC)c1O)Oc1ccc(cc1)[C@@H](O)C[C@@H](O)/C=C/C=C\2 | > 150 | > 150 | > 150 | > 150 |
| COc1c2cc(c(OC)c1O)Oc1ccc(cc1)[C@@H](O)C[C@@H](O)CC/C=C\2 | > 150 | > 150 | > 150 | > 150 |
| C[C@H]1OC(Oc2c(-c3ccc(O)cc3)oc3cc(O)cc(O)c3c2=O)[C@@H](O)[C@@H](O)[C@@H]1OC(=O)/C=C/c1ccc(O)cc1 (stereo partly drawn) | > 150 | > 150 | > 150 | > 150 |
| Oc1ccc2cc1-c1cc(ccc1O)C[C@H](O)[C@@H](O)[C@@H](O)C[C@@H](O)C2 | > 150 | > 150 | > 150 | > 150 |
| C[C@H]1OC(Oc2c(-c3cc(O)c(O)c(O)c3)oc3cc(O)cc(O)c3c2=O)[C@@H](O)[C@@H](O)[C@@H]1O (stereo partly drawn) | > 150 | > 150 | > 150 | > 150 |
| O=C1C[C@@H](O)Cc2ccc(O)c(c2)-c2cc(ccc2O)C[C@H](O)[C@H]1O | > 150 | > 150 | > 150 | > 150 |
| Oc1ccc2cc1-c1cc(ccc1O)C[C@H](O)[C@H](O)C(O)[C@@H](O)[C@H](O)C2 (stereo partly drawn) | > 150 | > 150 | > 150 | > 150 |
| O=C1CCc2ccc(O)c(c2)-c2cc(ccc2O)C[C@H](O[C@@H]2O[C@H](CO)[C@H](O)[C@@H](O)[C@H]2O)C[C@H]1O | > 150 | > 150 | > 150 | > 150 |
| O=C1CCc2ccc(O)c(c2)-c2cc(ccc2O)C[C@H](O)C[C@H]1O | > 150 | > 150 | > 150 | > 150 |
| C[C@H]1OC(Oc2c(-c3ccc(O)c(O)c3)oc3cc(O)cc(O)c3c2=O)[C@@H](O)[C@@H](O)[C@@H]1O (stereo partly drawn) | > 150 | > 150 | > 150 | > 150 |
| COc1cc(/C=C/C(=O)CC(=O)/C=C/c2ccc(O)c(OC)c2)ccc1O [CURCUMIN] | 34.4 | 48.6 | 22.8 | 28.1 |
